In ChEMBL document CHEMBL1125038, “Synthesis and antiinflammatory activity of cis- and trans-6,6a,7,8,9,10,10a,11-octahydro-11-oxodibenzo[b,e]thiepinacetic and -oxepinacetic acids” (J Med Chem, 1990):
Several values for one entry are separate records, joined by “and”; a condition that tells them apart may be missing. Identical values can stand only once.

Legend:
[1] = test system: Rattus norvegicus; assay: Inhibition of carrageenan hind paw edema in rats after oral administration of a dose of 5 mg/kg; assay type: functional
[2] = test system: Rattus norvegicus; assay: Antiinflammatory activity was determined against rat carrageenan hind paw edema, after oral administration; assay type: functional
[3] = species on record: Rattus norvegicus; assay: Analgesic activity was determined by measuring the dose required to inhibit acetic acid induced writhing; assay type: functional
[4] = species on record: Rattus norvegicus; assay: The compound was tested for gastric ulcerogenicity in rats; ca. 57; assay type: functional, Stomach
[5] = Safety index is the ratio of UD50 to ED50 in carrageenan hind paw edema; ca. 25; assay type: toxicity; settings: read-out: Safety index
[6] = Safety index is the ratio of UD50 to ED50 in carrageenan hind paw edema; assay type: toxicity; settings: read-out: Safety index
[7] = species on record: Rattus norvegicus; assay: The compound was tested for gastric ulcerogenicity in rats; assay type: functional, Stomach
[8] = The compound was tested for acute toxicity in mice after oral administration; assay type: organism-based; settings: mouse, in vivo
[9] = test system: Rattus norvegicus; assay: Antiinflammatory activity was determined against rats carrageenan hind paw edema after oral administration; assay type: functional
[10] = test system: Rattus norvegicus; assay: Antiinflammatory activity was determined against rats carrageenan hind paw edema, after oral administration; ca. 40; assay type: functional
[11] = species on record: Rattus norvegicus; assay: The compound was tested for gastric ulcerogenicity in rats; ca. 30; assay type: functional, Stomach
[12] = Safety index is the ratio of UD50 to ED50 in carrageenan hind paw edema; ca. 20; assay type: toxicity; settings: read-out: Safety index
[13] = The compound was tested for acute toxicity in mice after oral administration; ca. 200; assay type: organism-based; settings: mouse, in vivo
[14] = test system: Rattus norvegicus; assay: Antiinflammatory activity was determined against rat carrageenan hind paw edema after oral administration of a dose of 40 mg/kg
[15] = species on record: Rattus norvegicus; assay: The compound was tested for gastric ulcerogenicity in rats; ca. 8; assay type: functional, Stomach

Row | SMILES | inhibition in vivo at 5 mg/kg [1] | ED50 [9] | also measured
1 | CC(C(=O)OCc1ccccc1)c1ccc2c(c1)SCC1CCCCC1C2=O (centres undefined) | 25.6% |  | 
2 | CC(C(N)=O)c1ccc2c(c1)SCC1CCCCC1C2=O (centres undefined) | 30.5% |  | 
3 | CCCCCCOC(=O)C(C)c1ccc2c(c1)SCC1CCCCC1C2=O (centres undefined) | 28.3% |  | 
4 | CC(C(=O)OCC(=O)c1ccccc1)c1ccc2c(c1)SCC1CCCCC1C2=O (centres undefined) | 26.6% |  | 
5 | CC(C(=O)N(C)C)c1ccc2c(c1)SCC1CCCCC1C2=O (centres undefined) | 2.7% |  | 
6 | CCCCCOC(=O)C(C)c1ccc2c(c1)SCC1CCCCC1C2=O (centres undefined) | 22.1% |  | 
7 | CC(C)OC(=O)C(C)c1ccc2c(c1)SCC1CCCCC1C2=O (centres undefined) | 25.6% |  | 
8 | CC(C(=O)OC1CCCCC1)c1ccc2c(c1)SCC1CCCCC1C2=O (centres undefined) | 15.6% |  | 
9 | CCOCCOC(=O)C(C)c1ccc2c(c1)SCC1CCCCC1C2=O (centres undefined) | 34.6% |  | 
10 | CC(C(=O)OCCOCCO)c1ccc2c(c1)SCC1CCCCC1C2=O (centres undefined) | 28.1% |  | 
11 | CC(C)COC(=O)C(C)c1ccc2c(c1)SCC1CCCCC1C2=O (centres undefined) | 29.3% |  | 
12 | CCOC(=O)C(C)c1ccc2c(c1)SCC1CCCCC1C2=O (centres undefined) | 38.3% |  | ED50 ([2]; Rattus norvegicus, po, read-out: ED50): 2.24 mg/kg; ED50 [3]: 0.31 mg/kg; UD50 [4]: 57 mg/kg; selectivity ratio [5]: 25
13 | CC(C(=O)Oc1ccccc1)c1ccc2c(c1)SCC1CCCCC1C2=O (centres undefined) | 22% |  | 
14 | CC(C(=O)NCc1ccccc1)c1ccc2c(c1)SCC1CCCCC1C2=O (centres undefined) | -5.5% |  | 
15 | CC(C(=O)N1CCCCC1)c1ccc2c(c1)SCC1CCCCC1C2=O (centres undefined) | 5.3% |  | 
16 | CC(C(=O)NCCO)c1ccc2c(c1)SCC1CCCCC1C2=O (centres undefined) | 22.3% |  | 
17 | CC(C(=O)OCc1cccnc1)c1ccc2c(c1)SCC1CCCCC1C2=O (centres undefined) | 29.9% |  | 
18 | CC(C(=O)NO)c1ccc2c(c1)SCC1CCCCC1C2=O (centres undefined) | 29.9% |  | 
19 | CCCOC(=O)C(C)c1ccc2c(c1)SCC1CCCCC1C2=O (centres undefined) | 25.4% |  | 
20 | CC(C(=O)OC/C=C/c1ccccc1)c1ccc2c(c1)SCC1CCCCC1C2=O (centres undefined) | 20.3% |  | 
21 | CC(C(=O)OCCN1CCOCC1)c1ccc2c(c1)SCC1CCCCC1C2=O (centres undefined) | 22.2% |  | 
22 | CC(C(=O)OCCc1ccccn1)c1ccc2c(c1)SCC1CCCCC1C2=O (centres undefined) | 25.5% |  | 
23 | CNC(=O)C(C)c1ccc2c(c1)SCC1CCCCC1C2=O (centres undefined) | 14.6% |  | 
24 | CC(C(=O)N1CCN(C)CC1)c1ccc2c(c1)SCC1CCCCC1C2=O (centres undefined) | 5.3% |  | 
25 | CC(C(=O)NCC(=O)O)c1ccc2c(c1)SCC1CCCCC1C2=O (centres undefined) | 29.7% |  | 
26 | CC(C(=O)OCc1ccccn1)c1ccc2c(c1)SCC1CCCCC1C2=O (centres undefined) | 30.6% |  | 

Row | SMILES | inhibition in vivo at 5 mg/kg [1] | ED50 [9] | also measured
27 | CC(C(=O)N1CCOCC1)c1ccc2c(c1)SCC1CCCCC1C2=O (centres undefined) | 7.1% |  | 
28 | CCCCOC(=O)C(C)c1ccc2c(c1)SCC1CCCCC1C2=O (centres undefined) | 26% |  | 
29 | CC(C(=O)OCCc1ccccc1)c1ccc2c(c1)SCC1CCCCC1C2=O (centres undefined) | 39.1% |  | ED50 [2]: 3.53 mg/kg and 1.5 mg/kg; selectivity ratio [6]: > 35; UD50 [7]: >124 mg/kg; LD50 [8]: 644 mg/kg
30 | CC(C(=O)OCCCc1ccccc1)c1ccc2c(c1)SCC1CCCCC1C2=O (centres undefined) | 26% |  | 
31 | CCOC(=O)COC(=O)C(C)c1ccc2c(c1)SCC1CCCCC1C2=O (centres undefined) | 20.2% |  | 
32 | COC(=O)C(C)c1ccc2c(c1)SCC1CCCCC1C2=O (centres undefined) | 21.6% |  | 
33 | C=CCOC(=O)C(C)c1ccc2c(c1)SCC1CCCCC1C2=O (centres undefined) | 33.5% |  | 
34 | O=C(O)Cc1ccc2c(c1)C(=O)[C@H]1CCCC[C@@H]1CO2 (relative stereo) |  | > 40 mg/kg | 
35 | O=C(O)Cc1ccc2c(c1)OC[C@H]1CCCC[C@H]1C2=O (relative stereo) |  | > 40 mg/kg | 
36 | O=C(O)Cc1ccc2c(c1)C(=O)[C@@H]1CCCC[C@@H]1CS2 (relative stereo) |  | > 40 mg/kg | 
37 | O=C(O)Cc1ccc2c(c1)SC[C@H]1CCCC[C@@H]1C2=O (relative stereo) |  | 3.24 mg/kg | 
38 | O=C(O)Cc1ccc2c(c1)C(=O)[C@@H]1CCCC[C@@H]1CO2 (relative stereo) |  | > 40 mg/kg | 
39 | O=C(O)Cc1ccc2c(c1)C(=O)[C@H]1CCCC[C@@H]1CS2 (relative stereo) |  | > 40 mg/kg | 
40 | O=C(O)Cc1ccc2c(c1)SC[C@H]1CCCC[C@H]1C2=O (relative stereo) |  | > 40 mg/kg | 
41 | CC(C(=O)O)c1ccc2c(c1)C(=O)[C@H]1CCCC[C@@H]1CS2 (relative stereo) |  |  | ED50 [10]: 40 mg/kg
42 | O=C(O)Cc1ccc2c(c1)OC[C@H]1CCCC[C@@H]1C2=O (relative stereo) |  | 22.1 mg/kg | 
43 | CC(C(=O)O)c1ccc2c(c1)OC[C@H]1CCCC[C@@H]1C2=O (relative stereo) |  | 1.52 mg/kg | 
44 | CC(C(=O)O)c1ccc2c(c1)OC[C@H]1CCCC[C@H]1C2=O (relative stereo) |  | > 40 mg/kg | 
45 | CC(C(=O)O)c1ccc2c(c1)C(=O)[C@@H]1CCCC[C@@H]1CS2 (relative stereo) |  | > 40 mg/kg | 
46 | CC(C(=O)O)c1ccc2c(c1)C(=O)[C@@H]1CCCC[C@@H]1CO2 (relative stereo) |  | > 40 mg/kg | 
47 | CC(C(=O)O)c1ccc2c(c1)SC[C@H]1CCCC[C@@H]1C2=O (relative stereo) |  | 1.53 mg/kg | ED50 [3]: 0.39 mg/kg; UD50 [11]: 30 mg/kg; selectivity ratio [12]: 20; LD50 [13]: 200 mg/kg
48 | CC(C(=O)O)c1ccc2c(c1)C(=O)[C@H]1CCCC[C@@H]1CO2 (relative stereo) |  | > 40 mg/kg | 
49 | CC(C(=O)O)c1ccc2c(c1)SC[C@H]1CCCC[C@H]1C2=O (relative stereo) |  | > 40 mg/kg | 
50 | CC(C(=O)O)c1ccc2c(c1)SC[C@H]1CCCC[C@@H]1C2=O (relative stereo; form 1) |  |  | ED50 [14]: 1.89 mg/kg
51 | CC(C(=O)O)c1ccc2c(c1)SC[C@H]1CCCC[C@@H]1C2=O (relative stereo; form 2) |  |  | ED50 [14]: 37.1 mg/kg
52 | COc1ccc2c(c1)c(CC(=O)O)c(C)n2C(=O)c1ccc(Cl)cc1 [INDOMETHACIN] | 36.3% | 3.3 mg/kg | ED50 [3]: 0.44 mg/kg; selectivity ratio [6]: 2.4; UD50 [15]: 8 mg/kg; LD50 [8]: 23 mg/kg
